# Assay results: PubChem BioAssay AID1963969 (Molecular Pharmacology Branch, DTP, NCI, 2024)
# pIC50: −log10 of the molar value. Several values for one entry are separate records, joined by “and”; a condition that tells them apart may be missing. Equal values may be shown once.
# Test system: 817829-284-R-J1-PDC multi-cell spheroid viability
# Test: Anticancer human tumor 817829-284-R-J1-PDC patient-derived colon adenocarcinoma cell line growth inhibition [PI3K]
# Conditions: for viability, T/C: stronger effect = lower value
# Summary of the method: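 Tumor cells grown as multi-cell spheroids with HUVEC endothelial cells and MSC fibroblast-like stroma were treated with targeted agents combined with inavolisib, alpelisib, duvelisib or copanlisib. Doses fell in half-log steps from near clinical Cmax, else from 10 microM. Viability was measured.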
# [1] = curve of first compound, second compound 0.0316 µM
# [2] = curve of first compound, second compound 0.1 µM
# [3] = curve of first compound, second compound 0.316 µM
# [4] = curve of first compound, second compound 1 µM
# [5] = second compound 0.0316 µM, first compound 0.0316 µM
# [6] = second compound 0.0316 µM, first compound 0.1 µM
# [7] = second compound 0.0316 µM, first compound 0.316 µM
# [8] = second compound 0.0316 µM, first compound 1 µM
# [9] = second compound 0.0316 µM, first compound 3.16 µM
# [10] = second compound 0.0316 µM, first compound 10 µM
# [11] = second compound 0.1 µM, first compound 0.0316 µM
# [12] = second compound 0.1 µM, first compound 0.1 µM
# [13] = second compound 0.1 µM, first compound 0.316 µM
# [14] = second compound 0.1 µM, first compound 1 µM
# [15] = second compound 0.1 µM, first compound 3.16 µM
# [16] = second compound 0.1 µM, first compound 10 µM
# [17] = second compound 0.316 µM, first compound 0.0316 µM
# [18] = second compound 0.316 µM, first compound 0.1 µM
# [19] = second compound 0.316 µM, first compound 0.316 µM
# [20] = second compound 0.316 µM, first compound 1 µM
# [21] = second compound 0.316 µM, first compound 3.16 µM
# [22] = second compound 0.316 µM, first compound 10 µM
# [23] = second compound 1 µM, first compound 0.0316 µM
# [24] = second compound 1 µM, first compound 0.1 µM
# [25] = second compound 1 µM, first compound 0.316 µM
# [26] = second compound 1 µM, first compound 1 µM
# [27] = second compound 1 µM, first compound 3.16 µM
# [28] = second compound 1 µM, first compound 10 µM
# 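Note: spheroids exposed to agents for seven days before readout.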
# 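Throughout, for viability, T/C: percent of vehicle DMSO control viability which is 100%.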
smiles,measurement,setting,value
CC(C)NCC(C(=O)N1CCN(c2ncnc3c2C(C)CC3O)CC1)c1ccc(Cl)cc1 (stereo unspecified),"viability, T/C",compound 0.0316 µM,74.6% and 90.4%
same,"viability, T/C",compound 0.1 µM,61.1% and 54.8%
same,"viability, T/C",compound 0.316 µM,38.5% and 41.4%
same,"viability, T/C",compound 1 µM,28% and 27.8%
same,"viability, T/C",compound 3.16 µM,21% and 17.3%
same,"viability, T/C",compound 10 µM,10.7% and 10.9%
same,pIC50,curve of compound,6.75 and 6.77
CNC(=O)c1ccc(N2C(=S)N(c3ccc(C#N)c(C(F)(F)F)c3)C(=O)C2(C)C)cc1F + CC(Nc1ccc2c(c1)OCCn1cc(N3C(=O)OCC3C(F)F)nc1-2)C(N)=O,pIC50,"curve of first compound, second compound 0.00316 µM",< 5.00
same,pIC50,"curve of first compound, second compound 0.01 µM",< 5.00
same,pIC50,[1],< 5.00
same,pIC50,[2],5.38
same,pIC50,[3],5.47
same,pIC50,[4],> 7.50
same,"viability, T/C","second compound 0.00316 µM, first compound 0.0316 µM",57.7%
same,"viability, T/C","second compound 0.00316 µM, first compound 0.1 µM",88.8%
same,"viability, T/C","second compound 0.00316 µM, first compound 0.316 µM",109%
same,"viability, T/C","second compound 0.00316 µM, first compound 1 µM",75.6%
same,"viability, T/C","second compound 0.00316 µM, first compound 3.16 µM",61.9%
same,"viability, T/C","second compound 0.00316 µM, first compound 10 µM",50.9%
same,"viability, T/C","second compound 0.01 µM, first compound 0.0316 µM",86.1%
same,"viability, T/C","second compound 0.01 µM, first compound 0.1 µM",77.6%
same,"viability, T/C","second compound 0.01 µM, first compound 0.316 µM",89.1%
same,"viability, T/C","second compound 0.01 µM, first compound 1 µM",70.7%
same,"viability, T/C","second compound 0.01 µM, first compound 3.16 µM",60.5%
same,"viability, T/C","second compound 0.01 µM, first compound 10 µM",71.4%
same,"viability, T/C",[5],70.1%
same,"viability, T/C",[6],79.2%
same,"viability, T/C",[7],87.5%
same,"viability, T/C",[8],56.7%
same,"viability, T/C",[9],67.1%
same,"viability, T/C",[10],54.6%
same,"viability, T/C",[11],56.5%
same,"viability, T/C",[12],53.4%
same,"viability, T/C",[13],65.9%
same,"viability, T/C",[14],48.9%
same,"viability, T/C",[15],61.6%
same,"viability, T/C",[16],27.3%
same,"viability, T/C",[17],46.8%
same,"viability, T/C",[18],61.8%
same,"viability, T/C",[19],58%
same,"viability, T/C",[20],53.5%
same,"viability, T/C",[21],51%
same,"viability, T/C",[22],32.8%
same,"viability, T/C",[23],32.4%
same,"viability, T/C",[24],40.7%
same,"viability, T/C",[25],44.9%
same,"viability, T/C",[26],45.9%
same,"viability, T/C",[27],41.4%
same,"viability, T/C",[28],20.6%
CC(C)NCC(C(=O)N1CCN(c2ncnc3c2C(C)CC3O)CC1)c1ccc(Cl)cc1 (stereo unspecified) + Cc1nc(NC(=O)N2CCCC2C(N)=O)sc1-c1ccnc(C(C)(C)C(F)(F)F)c1,pIC50,[1],6.60
same,pIC50,[2],6.71
same,pIC50,[3],6.69
same,pIC50,[4],6.78
same,pIC50,"curve of first compound, second compound 3.16 µM",7.16
same,pIC50,"curve of first compound, second compound 10 µM",7.41
same,"viability, T/C",[5],80.1%
same,"viability, T/C",[6],62.1%
same,"viability, T/C",[7],51.1%
same,"viability, T/C",[8],21.8%
same,"viability, T/C",[9],19.6%
same,"viability, T/C",[10],13.5%
same,"viability, T/C",[11],82.5%
same,"viability, T/C",[12],72.9%
same,"viability, T/C",[13],32.4%
same,"viability, T/C",[14],21.5%
same,"viability, T/C",[15],19.4%
same,"viability, T/C",[16],13.1%
same,"viability, T/C",[17],55.5%
same,"viability, T/C",[18],107%
same,"viability, T/C",[19],30.5%
same,"viability, T/C",[20],24.4%
same,"viability, T/C",[21],17.3%
same,"viability, T/C",[22],11%
same,"viability, T/C",[23],69.3%
same,"viability, T/C",[24],66.3%
same,"viability, T/C",[25],29.6%
same,"viability, T/C",[26],23%
same,"viability, T/C",[27],16.6%
same,"viability, T/C",[28],8.39%
same,"viability, T/C","second compound 3.16 µM, first compound 0.0316 µM",69.3%
same,"viability, T/C","second compound 3.16 µM, first compound 0.1 µM",40.2%
same,"viability, T/C","second compound 3.16 µM, first compound 0.316 µM",23.9%
same,"viability, T/C","second compound 3.16 µM, first compound 1 µM",19.2%
same,"viability, T/C","second compound 3.16 µM, first compound 3.16 µM",15.3%
same,"viability, T/C","second compound 3.16 µM, first compound 10 µM",6.49%
same,"viability, T/C","second compound 10 µM, first compound 0.0316 µM",52.8%
same,"viability, T/C","second compound 10 µM, first compound 0.1 µM",39.5%
same,"viability, T/C","second compound 10 µM, first compound 0.316 µM",29%
same,"viability, T/C","second compound 10 µM, first compound 1 µM",24.6%
same,"viability, T/C","second compound 10 µM, first compound 3.16 µM",12.5%
same,"viability, T/C","second compound 10 µM, first compound 10 µM",6.18%
